Target: T1, AhR (Homo sapiens, UniProt P35869)
T1 sequence (P35869 11-848): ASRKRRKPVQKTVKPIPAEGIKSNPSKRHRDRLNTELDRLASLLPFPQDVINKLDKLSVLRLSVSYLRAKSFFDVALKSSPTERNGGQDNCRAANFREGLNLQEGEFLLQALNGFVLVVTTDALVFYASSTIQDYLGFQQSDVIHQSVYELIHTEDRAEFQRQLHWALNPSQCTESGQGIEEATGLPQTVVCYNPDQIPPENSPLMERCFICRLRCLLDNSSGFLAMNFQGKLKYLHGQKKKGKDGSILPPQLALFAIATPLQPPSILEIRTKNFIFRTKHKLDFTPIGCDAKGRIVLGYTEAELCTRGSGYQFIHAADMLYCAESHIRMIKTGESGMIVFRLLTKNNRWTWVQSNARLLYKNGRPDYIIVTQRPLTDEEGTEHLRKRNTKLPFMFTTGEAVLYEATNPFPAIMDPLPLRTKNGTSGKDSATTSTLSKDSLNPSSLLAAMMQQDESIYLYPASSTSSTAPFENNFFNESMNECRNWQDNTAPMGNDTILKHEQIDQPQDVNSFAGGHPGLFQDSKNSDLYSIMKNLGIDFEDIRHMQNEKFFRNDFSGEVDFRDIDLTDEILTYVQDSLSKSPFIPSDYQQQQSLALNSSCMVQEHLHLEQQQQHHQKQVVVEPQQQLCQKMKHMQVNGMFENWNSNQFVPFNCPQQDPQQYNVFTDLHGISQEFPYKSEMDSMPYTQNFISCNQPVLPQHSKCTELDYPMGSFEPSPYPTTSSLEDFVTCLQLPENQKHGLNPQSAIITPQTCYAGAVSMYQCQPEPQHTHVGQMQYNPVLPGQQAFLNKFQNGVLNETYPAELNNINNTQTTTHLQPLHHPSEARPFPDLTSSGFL
Assay: AhR antagonism in U937 cells (Promega P450-Glo assay)
Type: cell-based
Set-up: endogenous in cells; host or cells: U937 cells
Settings: CYP1A1 activity readout (Luciferin-CEE), head names VAF347, average, read-out: U937 Antagonist pIC50-VAF347: av. pIC50 (converted)
Description: In Vitro Assay 1: AhR Antagonism in U937 Cells (Promega P450-Glo™ Assay)
AhR antagonism was assessed in LJ937 cells (myeloid lineage cell line derived from a human histiocytic lymphoma). Ligand binds the AhR in the cytoplasm, and the AhR-ligand complex translocates to the nucleus and forms a heterodimer with AhR nuclear translocator (Arnt). This complex binds the xenobiotic response element (XRE) in the 5′ upstream region of the CYP1A1 promoter, enhancing CYP1A1 expression. CYP1A1 activity is subsequently determined by assessing the conversion of Luciferin-CEE to luciferin, which in turn reacts with luciferase to produce light. The amount of light produced is directly proportional to cytochrome P450 activity. U937 cells in Ultraculture serum free media (Lonza) were plated at 100,000 cells per well in a round bottom 96 well tissue culture plate. […] The plates were then placed in an incubator at 37° C., ≥85% humidity, 5% CO2 for 24 hrs. After aspiration of the supernatant the CYP1A1 substrate Luciferin-CEE ([Final] 83 μM) was added and incubated for 3 hrs before the reaction was stopped by adding luciferin detection reagent and luminescence was read after 20 minutes.

IC50 [nM] | SMILES
89.1 | Cc1ccc(-c2nc3c(c(NCCc4c[nH]c5ccccc45)n2)OCCN3)cn1 [Example 15, N-[2-(1H-indol-3-yl)ethyl]-2-(6-methyl-3-pyridyl)-7,8-dihydro-6H-pyrimido[5,4-b][1,4]oxazin-4-amine]
33.1 | Cc1ncc(-c2nc3c(c(NCCc4c[nH]c5ccccc45)n2)OCCN3)cc1F [Example 16, 2-(5-fluoro-6-methyl-3-pyridyl)-N-[2-(1H-indol-3-yl)ethyl]-7,8-dihydro-6H-pyrimido[5,4-b][1,4]oxazin-4-amine]
447 | O=c1ccc(-c2nc3c(c(NCCc4c[nH]c5ccccc45)n2)OCCN3)c[nH]1 [Example 18, 5-[4-[2-(1H-indol-3-yl)ethylamino]-7,8-dihydro-6H-pyrimido[5,4-b][1,4]oxazin-2-yl]-1H-pyridin-2-one]
457 | COc1ncc(C)cc1-c1nc2c(c(NCCc3c[nH]c4ccccc34)n1)OCCN2 [Example 23, N-[2-(1H-indol-3-yl)ethyl]-2-(2-methoxy-5-methyl-3-pyridyl)-7,8-dihydro-6H-pyrimido[5,4-b][1,4]oxazin-4-amine]
16.2 | CC1(C)COc2c(NCCc3c[nH]c4ccccc34)nc(-c3cncc(F)c3)nc2N1 [Example 31, 2-(5-fluoro-3-pyridyl)-N-[2-(1H-indol-3-yl)ethyl]-7,7-dimethyl-6,8-dihydropyrimido[5,4-b][1,4]oxazin-4-amine]
89.1 | Cc1ncc(-c2nc(N[C@@H]3CCc4[nH]c5ccccc5c4C3)c3c(n2)N(S(C)(=O)=O)CCO3)s1 [Example 39, 8-methylsulfonyl-2-(2-methylthiazol-5-yl)-N-[(3R)-2,3,4,9-tetrahydro-1H-carbazol-3-yl]-6,7-dihydropyrimido[5,4-b][1,4]oxazin-4-amine]
15.1 | O=c1[nH]cccc1-c1nc2c(c(NCCc3c(Cl)[nH]c4ccccc34)n1)OCCN2 [Example 40, 3-(4-((2-(2-chloro-1H-indol-3-yl)ethyl)amino)-7,8-dihydro-6H-pyrimido[5,4-b][1,4]oxazin-2-yl)pyridin-2(1H)-one]
19.5 | Cc1[nH]c2c(F)cccc2c1CCNc1nc(-c2ccc[nH]c2=O)nc2c1OCCN2 [Example 41, 3-[4-[2-(7-fluoro-2-methyl-1H-indol-3-yl)ethylamino]-7,8-dihydro-6H-pyrimido[5,4-b][1,4]oxazin-2-yl]-1H-pyridin-2-one]
209 | Cc1[nH]c2c(F)cc(F)cc2c1CCNc1nc(-c2ccc[nH]c2=O)nc2c1OCCN2 [Example 42, 3-(4-((2-(5,7-difluoro-2-methyl-1H-indol-3-yl)ethyl)amino)-7,8-dihydro-6H-pyrimido[5,4-b][1,4]oxazin-2-yl)pyridin-2-ol]
7.08 | Oc1ncccc1-c1nc2c(c(NCCc3c[nH]c4cc(OC(F)(F)F)ccc34)n1)OCCN2 [Example 43, 3-(4-((2-(6-(trifluoromethoxy)-1H-indol-3-yl)ethyl)amino)-7,8-dihydro-6H-pyrimido[5,4-b][1,4]oxazin-2-yl)pyridin-2(1H)-one]
3.24 | COC[C@@H]1COc2c(NCCc3c[nH]c4cc(F)ccc34)nc(-c3ccc[nH]c3=O)nc2N1 [Example 47, (R)-3-(4-((2-(6-fluoro-1H-indol-3-yl)ethyl)amino)-7-(methoxymethyl)-7,8-dihydro-6H-pyrimido[5,4-b][1,4]oxazin-2-yl)pyridin-2(1H)-one]
204 | Cc1ncc(-c2nc3c(c(N[C@@H]4CCc5[nH]c6ccccc6c5C4)n2)OCCN3)s1 [Example 51, 2-(2-methylthiazol-5-yl)-N-[(3R)-2,3,4,9-tetrahydro-1H-carbazol-3-yl]-7,8-dihydro-6H-pyrimido[5,4-b][1,4]oxazin-4-amine]
17.8 | Cc1nc(C)c(-c2nc3c(c(NCCc4c[nH]c5ccccc45)n2)OCCN3)s1 [Example 52, 2-(2,4-dimethylthiazol-5-yl)-N-[2-(1H-indol-3-yl)ethyl]-7,8-dihydro-6H-pyrimido[5,4-b][1,4]oxazin-4-amine]
